The source of these data is patent publication US10723741B1, “DNA polymerase IIIC inhibitors and use thereof” (Acurx Pharmaceuticals, LLC, priority 2018, dated 2020).

Type in all cases: cell-based
Assay [1] deals with Staphylococcus aureus NRS384 (MRSA). Put plainly: Broth microdilution MIC, S. aureus NRS384 (MRSA). Also noted: MIC NRS 384 (MRSA): unit not given here. Particulars: broth microdilution, 37° C., 20 hours; for MIC: Staphylococcus aureus, read-out: MIC NRS 384 (MRSA). The method in brief:
(§1)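 Two-fold dilutions from 64 to 0.0625 μg/ml final, 1% DMSO, were inoculated at ~5.0×10^5 cfu/ml in the strain's test medium and kept 20 h at 37 °C in ambient atmosphere. Colonies were grown on MHA, with S. pneumoniae on blood agar under 5% CO2.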
For orientation: Dilution methods test growth across graded concentrations, often in twofold steps.

Assay [2] concerns Staphylococcus aureus ATCC 29213 (MSSA). Put plainly: Broth microdilution MIC, S. aureus ATCC 29213 (MSSA). As to conditions: broth microdilution, 37° C., 20 hours, read-out: MIC S. aureus ATCC 29213 (MSSA). In outline: as §1
Assay [3] has as its system Enterococcus faecalis ATCC 29212. Put plainly: Broth microdilution MIC, E. faecalis ATCC 29212. Particulars: ATCC29212, broth microdilution, 37° C., 20 hours, read-out: MIC E. faecalis ATCC 29212. In outline:
as §1

Assay [4] deals with Enterococcus faecium ATCC 700221 (VRE). Kind of assay: Broth microdilution MIC, E. faecium ATCC 700221 (VRE). Also noted: MIC E. faecium ATCC 700221 (VRE): unit: ug/mL. As to conditions: broth microdilution, 37° C., 20 hours; for MIC: Enterococcus faecium, read-out: MIC E. faecium ATCC 700221 (VRE). The method in brief: as §1
Assay [5] deals with Streptococcus pneumoniae ATCC 49619. Put plainly: Broth microdilution MIC, S. pneumoniae ATCC 49619. Particulars: ATCC49619, broth microdilution, 37° C., 20 hours, read-out: MIC S. pneumoniae ATCC 49619. The method in brief:
as §1

The subject of assay [6] is Bacillus subtilis ATCC 6633. Kind of assay: Broth microdilution MIC, B. subtilis ATCC 6633. As to conditions: ATCC6633, broth microdilution, 37° C., 20 hours, read-out: MIC B. subtilis ATCC 6633. The method in brief: as §1
The subject of assay [7] is Escherichia coli ATCC 25922. Kind of assay: Broth microdilution MIC, E. coli ATCC 25922 (MHIIB w & w/o 4 mM EDTA). Particulars: broth microdilution, 37° C., 20 hours; for MIC: Escherichia coli, ATCC25922, without EDTA, read-out: MIC E. coli ATCC 25922; for MIC E. coli ATCC 25922 + 4 mM EDTA: with 4 mM EDTA. The method in brief: as §1

Structures are written as SMILES. Values after ≈ are worked out from the molar mass of the structure shown. Read-outs that look alike come from different tables or passages of the source.

On to `CC(CO)n1cc2nc(NCc3ccc(Cl)c(Cl)c3)[nH]c(=O)c2n1` (stereo not drawn) [Compound 225, 5-((3,4-dichlorobenzyl)amino)-2-(1-hydroxypropan-2-yl)-2H-pyrazolo[4,3-d]pyrimidin-7(6H)-one], for which the MIC (commonly the lowest concentration that inhibits growth of the organism) in assay [1] amounted to 64 µg/mL (≈ 174 µM); in assay [2] it was 64 µg/mL (≈ 174 µM); in assay [3] it was 64 µg/mL (≈ 174 µM); in assay [4], 32 µg/mL (≈ 86.9 µM); in assay [5], 16 µg/mL (≈ 43.5 µM); in assay [6], 32 µg/mL (≈ 86.9 µM). Moreover, in assay [7], the MIC was greater than 64 µg/mL. In addition, the “MIC E. coli ATCC 25922 + 4 mM EDTA” value in assay [7] was greater than 64 µg/mL.
With `COc1ccc(CNc2nc3cnn(C)c3c(=O)[nH]2)cc1OC` [Compound 32, 5-((3,4-Dimethoxybenzyl)amino)-1-methyl-1H-pyrazolo[4,3-d]pyrimidin-7(6H)-one], the MIC in assay [1], in assay [2], in assay [3], in assay [4], in assay [5] and in assay [6] was greater than 64 µg/mL in each case. The MIC in assay [7] is greater than 64 µg/mL. Also, the “MIC E. coli ATCC 25922 + 4 mM EDTA” value in assay [7] is greater than 64 µg/mL.
`O=c1[nH]c(NCc2ccc(Cl)c(Cl)c2)nc2cnn(CCOCCOCCOCCO)c12` [Compound 116, 5-((3,4-Dichlorobenzyl)amino)-1-(2-(2-(2-(2-hydroxyethoxy)ethoxy)ethoxy)ethyl)-1H-pyrazolo[4,3-d]pyrimidin-7(6H)-one]: the MIC came out at 32 µg/mL (≈ 65.8 µM) in assay [1]; 64 µg/mL (≈ 132 µM) in assay [2]; 16 µg/mL (≈ 32.9 µM) in assay [3]; 8 µg/mL (≈ 16.4 µM) in assay [4]; 8 µg/mL (≈ 16.4 µM) in assay [5]; 8 µg/mL (≈ 16.4 µM) in assay [6]. Also, the MIC in assay [7] was greater than 64 µg/mL. For the same compound, in assay [7], the “MIC E. coli ATCC 25922 + 4 mM EDTA” value was greater than 64 µg/mL.
As to `O=c1[nH]c(NCc2ccc(Cl)c(Cl)c2)nc2cnn(CCOC3COC3)c12` [Compound 178, 5-((3,4-Dichlorobenzyl)amino)-1-(2-(oxetan-3-yloxy)ethyl)-1H-pyrazolo[4,3-d]pyrimidin-7(6H)-one], the “MIC NRS 384 (MRSA)” value in assay [1] is 4/4. Moreover, the MIC was 4 µg/mL (≈ 9.75 µM) in assay [2]; 8 µg/mL (≈ 19.5 µM) in assay [3]; 4 µg/mL (≈ 9.75 µM) in assay [5]; 2 µg/mL (≈ 4.87 µM) in assay [6]; greater than 64 µg/mL in assay [7]. The “MIC E. faecium ATCC 700221 (VRE)” value in assay [4] was 4/4. The “MIC E. coli ATCC 25922 + 4 mM EDTA” value in assay [7] is greater than 64 µg/mL.
On to `Cl.O=C(c1nnc[nH]1)N1CCC(n2ncc3nc(NCc4ccc(Cl)c(Cl)c4)[nH]c(=O)c32)CC1` [Compound 265, 1-(1-(4H-1,2,4-triazole-3-carbonyl)piperidin-4-yl)-5-((3,4-dichlorobenzyl)amino)-1H-pyrazolo[4,3-d]pyrimidin-7(6H)-one hydrochloride], for which the MIC in assay [1] turned out to be 8 µg/mL; in assay [2], 8 µg/mL; in assay [3] it was 4 µg/mL; in assay [4], 4 µg/mL; in assay [5] it was 4 µg/mL; in assay [6], 4 µg/mL. The MIC in assay [7] was greater than 64 µg/mL. In addition, the “MIC E. coli ATCC 25922 + 4 mM EDTA” value in assay [7] is greater than 64 µg/mL.
For `Cn1ncc2nc(NCc3cn[nH]n3)[nH]c(=O)c21` [Compound 17, 5-(((2H-1,2,3-triazol-4-yl)methyl)amino)-1-methyl-1H-pyrazolo[4,3-d]pyrimidin-7(6H)-one], the MIC in assay [1], in assay [2], in assay [3], in assay [4], in assay [5] and in assay [6] was greater than 64 µg/mL each time. For the same compound, the MIC in assay [7] is greater than 64 µg/mL. For the same compound, the “MIC E. coli ATCC 25922 + 4 mM EDTA” value in assay [7] was greater than 64 µg/mL.
`O=c1[nH]c(NCc2ccc(Cl)c(Cl)c2)nc2cnn(CCNCCn3ncc4nc(NCc5ccc(Cl)c(Cl)c5)[nH]c(=O)c43)c12` [Compound 78]: the MIC amounted to 32 µg/mL (≈ 46.4 µM) in assay [1]; 64 µg/mL (≈ 92.8 µM) in assay [2]; 8 µg/mL (≈ 11.6 µM) in assay [3]; 2 µg/mL (≈ 2.9 µM) in assay [4]; 32 µg/mL (≈ 46.4 µM) in assay [5]; 4 µg/mL (≈ 5.8 µM) in assay [6]. Also, the MIC in assay [7] was greater than 64 µg/mL. The “MIC E. coli ATCC 25922 + 4 mM EDTA” value in assay [7] is greater than 64 µg/mL.
For the compound `CN1CCOC(Cn2ncc3nc(NCc4ccc(Cl)c(Cl)c4)[nH]c(=O)c32)C1.Cl` (stereo not drawn) [Compound 147, 5-((3,4-dichlorobenzyl)amino)-1-((4-methylmorpholin-2-yl)methyl)-1H-pyrazolo[4,3-d]pyrimidin-7(6H)-one hydrochloride], the MIC in assay [1] came out at 4 µg/mL; in assay [2] it was 8 µg/mL; in assay [3], 8 µg/mL; in assay [4], 2 µg/mL; in assay [5], 4 µg/mL; in assay [6], 2 µg/mL. Moreover, the MIC in assay [7] was greater than 64 µg/mL. Further, the “MIC E. coli ATCC 25922 + 4 mM EDTA” value in assay [7] was found to be 64 µg/mL.
`Cl.O=c1[nH]c(NCc2ccc(Cl)c(Cl)c2)nc2cnn(C3CCN(S(=O)(=O)c4cccnc4)CC3)c12` [Compound 156, 5-((3,4-dichlorobenzyl)amino)-1-(1-(pyridin-3-ylsulfonyl)piperidin-4-yl)-1H-pyrazolo[4,3-d]pyrimidin-7(6H)-one hydrochloride]: the MIC was 2 µg/mL in assay [1]; 2 µg/mL in assay [2]; greater than 64 µg/mL in assay [3]; 1 µg/mL in assay [4]; 4 µg/mL in assay [5]; 1 µg/mL in assay [6]. In assay [7], the MIC is greater than 64 µg/mL. For the same compound, the “MIC E. coli ATCC 25922 + 4 mM EDTA” value in assay [7] was greater than 64 µg/mL.
Turning to `CC(C(=O)O)n1cc2nc(NCc3ccc(Cl)c(Cl)c3)[nH]c(=O)c2n1` (stereo not drawn) [Compound 223, 2-(5-((3,4-dichlorobenzyl)amino)-7-oxo-6,7-dihydro-2H-pyrazolo[4,3-d]pyrimidin-2-yl)propanoic acid], the MIC in assay [1], in assay [2], in assay [3], in assay [4], in assay [5] and in assay [6] was greater than 64 µg/mL in each case. For the same compound, in assay [7], the MIC is greater than 64 µg/mL. Moreover, the “MIC E. coli ATCC 25922 + 4 mM EDTA” value in assay [7] was greater than 64 µg/mL.
For `Cn1ncc2nc(Nc3ccc4c(c3)COC4)[nH]c(=O)c21` [Compound 39, 5-((1,3-Dihydroisobenzofuran-5-yl)amino)-1-methyl-1H-pyrazolo[4,3-d]pyrimidin-7(6H)-one], the MIC in assay [1], in assay [2], in assay [3], in assay [4], in assay [5] and in assay [6] was greater than 64 µg/mL each time. The MIC in assay [7] is greater than 64 µg/mL. The “MIC E. coli ATCC 25922 + 4 mM EDTA” value in assay [7] is greater than 64 µg/mL.
For `Cl.O=c1[nH]c(NCc2ccc(Cl)c(Cl)c2)nc2cnn(CCOc3ccc(CO)nc3)c12` [Compound 174, 5-((3,4-dichlorobenzyl)amino)-1-(2-((6-(hydroxymethyl)pyridin-3-yl)oxy)ethyl)-1H-pyrazolo[4,3-d]pyrimidin-7(6H)-one hydrochloride], the “MIC NRS 384 (MRSA)” value in assay [1] was 8/8. For the same compound, the minimal inhibitory concentration (MIC) in assay [2] was 8 µg/mL; in assay [3], 8 µg/mL; in assay [5] it was 8 µg/mL; in assay [6], 2 µg/mL; in assay [7] it was greater than 64 µg/mL. Besides, the “MIC E. faecium ATCC 700221 (VRE)” value in assay [4] is listed as 2/2. Moreover, the “MIC E. coli ATCC 25922 + 4 mM EDTA” value in assay [7] is greater than 64 µg/mL.
As to `Cn1ncc2nc(NCc3ccc4[nH]cnc4c3)[nH]c(=O)c21` [Compound 19, 5-(((1H-benzo[d]imidazol-5-yl)methyl)amino)-1-methyl-1H-pyrazolo[4,3-d]pyrimidin-7(6H)-one], the MIC in assay [1], in assay [2], in assay [3], in assay [4], in assay [5] and in assay [6] was greater than 64 µg/mL each time. Moreover, in assay [7], the MIC is greater than 64 µg/mL. The “MIC E. coli ATCC 25922 + 4 mM EDTA” value in assay [7] is greater than 64 µg/mL.
`Cc1ccc(CNc2nc3cnn(C)c3c(=O)[nH]2)cc1Cl` [Compound 31, 5-((3-Chloro-4-methylbenzyl)amino)-1-methyl-1H-pyrazolo[4,3-d]pyrimidin-7(6H)-one]: the MIC was 4 µg/mL (≈ 13.2 µM) in assay [1]; 4 µg/mL (≈ 13.2 µM) in assay [2]; 8 µg/mL (≈ 26.3 µM) in assay [3]; 4 µg/mL (≈ 13.2 µM) in assay [4]; 8 µg/mL (≈ 26.3 µM) in assay [5]; 2 µg/mL (≈ 6.58 µM) in assay [6]. Further, the MIC in assay [7] was greater than 64 µg/mL. For the same compound, the “MIC E. coli ATCC 25922 + 4 mM EDTA” value in assay [7] was 16 µg/mL.
On to `Cc1cc(CNc2nc3c(F)nn(CCOCCO)c3c(=O)[nH]2)ccc1F` [Compound 311, 3-Fluoro-5-((4-fluoro-3-methylbenzyl)amino)-1-(2-(2-hydroxyethoxy)ethyl)-1H-pyrazolo[4,3-d]pyrimidin-7(6H)-one], for which the MIC came out at 16 µg/mL (≈ 42.2 µM) in assay [1] (S. aureus NRS 384); 16 µg/mL (≈ 42.2 µM) in assay [2]; 16 µg/mL (≈ 42.2 µM) in assay [3]; 16 µg/mL (≈ 42.2 µM) in assay [4]; 32 µg/mL (≈ 84.4 µM) in assay [5]; 8 µg/mL (≈ 21.1 µM) in assay [6]. Also, the MIC in assay [7] is greater than 64 µg/mL. Besides, in assay [7], the “MIC E. coli ATCC 25922 + 4 mM EDTA” value is greater than 64 µg/mL.
